{"source": "patent US7592326B2", "about": "“Method for stimulating the immune, inflammatory or neuroprotective response” (priority 2004, dated 2009)", "key": {"immature DCs": {"system": "immature DCs", "experiment": "Surface phenotype of DCs exposed to c-di-GMP (flow cytometry)", "type": "cell-based, human", "procedure": "Peripheral blood mononuclear cells (PBMC) were isolated by Ficoll-Hypaque gradient separation of buffy coats obtained from healthy volunteer blood donors by the Transfusion Center of Università Degli Studi “La Sapienza” Rome. DCs were generated from monocytes purified from PBMC by positive selection using magnetic cell separation columns and CD14 Microbeads. Highly enriched monocytes (>95% CD14^+) were cultured at 6×10^5/ml in RPMI 1640 medium supplemented with 15% heat-inactivated fetal calf serum (FCS), L-glutamine and penicillin-streptomycin and 250 ng/ml granulocyte macrophage-colony stimulating factor (GM-CSF) and 500 U/ml interleukin (IL)-4 at 37° C. for 5 days. Differentiation to DC was assessed both by morphologic observation and the detection of specific surface markers by flow cytometry. These cells were CD14^−, CD1a^+, HLA-DR^intermediate, HLA-ABC^intermediate CD80^low, CD86^low consistent with an immature DC phenotype. Untreated immature DCs were used as controls. […] LPS-treated DCs became stimulated/activated and produced CD83^+, HLA-DR^high, HLA-ABC^high consistent with a mature DC phenotype. […] Experiments using trypan blue exclusion tests were always performed in order to exclude any aspecific toxicity of c-di-GMP. NaCl (0.9%) used to resuspend the compound was always included as control. Cell staining was performed using mouse monoclonal antibodies FITC- or PE-conjugate. The following mAbs were used: CD14 (IgG1, PE), CD1a (IgG1, FITC), HLA-DR (IgG2a, FITC), HLA-ABC (IgG1, FITC), CD80 (IgG1, FITC), CD86 (IgG1, FITC); CD83 (IgG2b, PE), CXCR4 (IgG2aPE), CCR5 (IgG2a, FITC), CD32 (IgG2b, FITC). CD40, CCR7 and mannose receptor (MR) staining was performed using mouse mAb followed by FITC-conjugated affinity purified, isotype-specific goat anti-mouse Abs. Samples were analyzed using a FACScan flow cytometer and CellQuest software (Becton Dickinson). To investigate whether c-di-GMP induced phenotypic differentiation of human DCs, immature and mature DCs were cultured with c-di-GMP for 24 h and then analyzed for surface molecule expression."}, "NF-κB": {"system": "NF-κB", "experiment": "Western blot signaling in human DCs: NF-κB (I-κBα degradation)", "type": "cell-based", "details": "up to 30 min", "procedure": "Human PBMC were isolated by Ficoll density gradient centrifugation from leukopacks supplied by the Department of Transfusion Medicine (Clinical Center, National Institute of Health, Bethesda, Md.). Monocytes were purified (>95%) from human PBMC with MACS CD14 monocyte isolation kit (Miltenyi Biotech Inc., Auburn, Calif.) according to the manufacturer's instruction. DCs were generated as described previously (Yang et al., 2001). In brief, DCs were generated by incubating purified monocytes at 2×10^5/ml in RPMI 1640 containing 10% FBS, 2 mM glutamine, 25 mM HEPES, 100 U/ml penicillin, 100 ug/ml streptomycin, 50 ng/ml recombinant human GM-CSF (PeproTech, Rocky Hill, N.J.), and 50 ng/ml recombinant human IL-4 (PeproTech) at 37° C. in a CO2 (5%) incubator for 7 days. On day 3 and 5 of the incubation, half of the culture medium was replaced with pre-warmed (37° C.) fresh GM-CSF- and IL-4-containing medium. On day 7, DCs were collected, washed three times with PBS, and serum-starved for 8 hours by incubating in serum-free RPMI-1640 containing GM-CSF and IL-4 (2×10^5/ml) at 37° C. in a CO2 (5%) incubator. Subsequently, DCs (2×10^6/sample) were incubated at 37° C. in the absence or presence of c-di-GMP or GMP (Sigma, St. Louis, Mo.) at concentrations specified for 5 or 30 minutes. […]"}, "[1]": {"system": "PR8 followed by D39 or NCH57", "experiment": "Secondary bacterial pneumonia following influenza infection in mice (proposed)", "type": "in vivo", "details": "200 nmol/animal 24- and 48 hours prior to bacterial challenge", "procedure": "To show the effect of c-di-GMP secondary bacterial pneumonia following influenza infection, groups of 6 mice are infected with 100 TCID50 of PR8 and challenged 7 days later with either 1000 CFU of D39, or 1×10^7 CFU of NCH57 and followed twice daily for weight loss, development of secondary bacterial infections by bioluminescent imaging, and mortality. One group of mice is treated with c-di-GMP 24- and 48 hours (e.g., orally, intransal, i.p, s.q. i.m.) prior to bacterial challenge with 200 nmol/animal."}, "[2]": {"system": "Influenza virus B/Yamanashi/166/98", "experiment": "Influenza vaccination model in mice, c-diGMP as adjuvant (proposed)", "type": "in vivo", "details": "two vaccinations 3 weeks apart"}}, "data": [{"compound": "Nc1nc(=O)c2ncn([C@@H]3OC4COP(=O)(O)O[C@H]5[C@@H](O)[C@H](n6cnc7c(=O)nc(N)[nH]c76)O[C@@H]5COP(=O)(O)OC4C3O)c2[nH]1", "note": "(stereo partly drawn) [c-di-GMP, Bis(3′→5′)-cyclic diguanylic acid]", "values": [{"measurement": "effect in dose-response titration on DCs", "setting": "immature DCs; 0.5 μM c-di-GMP", "value": "No effect"}, {"measurement": "effect in dose-response titration on DCs", "setting": "immature DCs; 200 μM c-di-GMP", "value": "inconsistent results"}, {"measurement": "LPS-induced maturation", "setting": "immature DCs; DCs with LPS, data not shown", "value": "did not interfere"}, {"measurement": "surface expression of CD1a, HLA-ABC, CCR5 and CD40", "setting": "immature DCs; data not shown", "value": "did not affect"}, {"measurement": "expression of chemokine receptor CXCR4", "setting": "immature DCs; immature DCs, 24 h, FIG. 1C", "value": "significantly increased"}, {"measurement": "expression of chemokine receptor CCR7", "setting": "immature DCs; immature DCs, 24 h, FIG. 1D", "value": "significantly increased"}, {"measurement": "expression of CD86 (B7-2) (percentage of positive cells)", "setting": "immature DCs; immature DCs, 24 h, FIG. 1F", "value": "up-regulated"}, {"measurement": "CD32 expression", "setting": "immature DCs; immature DCs, 24 h, FIG. 1H", "value": "not affected"}, {"measurement": "expression of CD83 (mean fluorescence)", "setting": "immature DCs; immature DCs, 24 h, dose-dependent, no effect at high concentrations, FIG. 1B", "value": "slightly up-regulated"}, {"measurement": "expression of CD80 (B7-1)", "setting": "immature DCs; immature DCs, 24 h, dose-dependent, FIG. 1E", "value": "slightly increased"}, {"measurement": "expression of mannose receptor (MR) (mean fluorescence)", "setting": "immature DCs; immature DCs, 24 h, dose-dependent, FIG. 1G", "value": "reduced"}, {"measurement": "expression of HLA-DR (MFI, percentage of positive cells)", "setting": "immature DCs; immature DCs, c-di-GMP 5, 50, 100 μM, 24 h, FIG. 1A", "value": "up-regulated"}, {"measurement": "activation of NF-κB (I-κBα degradation)", "setting": "NF-κB", "value": "did not activate"}, {"measurement": "survival", "setting": "[1]", "value": "greater survival"}, {"measurement": "survival after challenge", "setting": "[2]", "value": "greater survival"}]}]}
